The numbers were not newly measured in patent US7815936B2, “Use of granular materials based on pyrogenically produced silicon dioxide in pharmaceutical compositions” (Evonik Degussa GmbH, priority 2001, dated 2010), which cites them from elsewhere.

For this series the following is noted: pure active constituent in water, reached only after shaking over several days.

With `C#C[C@]1(O)CC[C@H]2[C@@H]3CCc4cc(O)ccc4[C@H]3CC[C@@]21C` [ethinyl oestradiol], the saturation equilibrium value was 1.1 mg/100 ml.
